Read-outs that look alike come from different tables or passages of the source.
How the values were obtained:
EGFR mutant NSCLC = assay: Compound A40 in EGFR mutant NSCLC patients; format: in vivo, human
CT26 = conditions: cited from earlier work
[1] = test system: KRAS-mutant CT26 colorectal tumor; conditions: monotherapy, CT26 model; cited from earlier work
metastatic TNBC = conditions: Keynote-012; cited from earlier work
metastatic breast cancer = conditions: phase III, cited from earlier work
[2] = test system: S6 kinase (S6K) phosphorylation; conditions: predicted, cited from earlier work
[3] = test system: PD-1-positive CD4+ and CD8+ lymphocytes; conditions: 5 mg per week, cited from earlier work
T lymphocytes [4] = assay: T lymphocyte proliferation and cytokine production in vitro; format: cell-based
MC38 [5] = assay: MC38 murine syngeneic tumor model, Compound A21 with anti-PD-1; format: in vivo, C57B1/6 mice; conditions: Compound A21 100 mg/kg orally once weekly (split 50 mg/kg b.i.d.), anti-PD-1 10 mg/kg IV once weekly
Description: C57B1/6 mice were implanted with 1×10^6 MC38 cells/mouse. Vehicle and Compound A21 (50 mg/kg orally twice daily QW) were given for four doses, starting on day 4 post-tumor implant. Isotype and anti-mouse PD-1 were given 10 mg/kg IV QW.

T lymphocytes [6] = assay: Compound A21 effects on T lymphocytes in vitro; format: cell-based
PD-L1 gene = conditions: cited from earlier work
[7] = test system: class I, IIa, IIIb, and IV isoforms (HDAC); conditions: majority of class I; cited from earlier work
MC38 [8] = assay: MC38 murine syngeneic tumor model, panobinostat with anti-PD-1; format: in vivo
[9] = test system: S6 kinase (S6K) phosphorylation; conditions: predicted by modeling, cited from earlier work
[10] = test system: PD-1-positive CD4+ and CD8+ lymphocytes; conditions: 5 mg per week, elderly subjects; cited from earlier work
xenografted tumors = conditions: cited from earlier work
glioblastoma = conditions: cited from earlier work
BAF3-PDGFRβ = assay: kinase transfected BaF3 proliferation assay, BAF3-PDGFRβ; conditions: Mus musculus, BaF3, read-out: Cellular EC50 BAF3-PDGFRβ
MC38 [11] = assay: MC38 syngeneic colorectal cancer model, Compound A15 with anti-PD-1; format: in vivo; conditions: preclinical data
[12] = continuous daily dosing, transaminases, rats; format: in vivo
[13] = test system: all other BaF3 cell lines; assay: kinase transfected BaF3 proliferation assays, all other BaF3 cell lines; conditions: Mus musculus, BaF3, read-out: Cellular EC50 all other BaF3 cell lines
[14] = test system: human T cell proliferation; conditions: cited from earlier work
[15] = continuous daily dosing, transaminases, monkeys; format: in vivo
MNFS-60 = assay: anti-proliferative effect on M-CSF dependent cell line MNFS-60
AML = conditions: cited from earlier work
[16] = 0.5 mg daily dosing regimen, over the dosing interval

## Cc1cc(C(=O)Nc2nc3cccc(Cl)c3n2[C@@H]2CCCCN(C(=O)/C=C/CN(C)C)C2)ccn1 [Compound A40]
EGFR mutant NSCLC
  efficacy: has shown efficacy

## CC(=O)Nc1cccc(-n2c(=O)n(C3CC3)c(=O)c3c(Nc4ccc(I)cc4F)n(C)c(=O)c(C)c32)c1 [trametinib, N-(3-{3-cyclopropyl-5-[(2-fluoro-4-iodophenyl)amino]-6,8-dimethyl-2,4,7-trioxo-3,4,6,7-tetrahydropyrido[4,3-d]pyrimidin-1(2H)-yl}phenyl)acetamide]
CT26; CT26, treatment for seven days
  CD4+ T cells in tumor tissue: significant increases of CD4+ T cells
CT26; CT26
  tumor infiltrating lymphocytes (TILs): increases the numbers of tumor infiltrating lymphocytes (TILs)
[1]
  CD4+ tumor infiltrating lymphocytes (TILs): increased
  prevalence of CD8+ TILs: did not negatively affect

## pembrolizumab
Metastatic TNBC
  responses, patients: five of 27

## CC(=O)O[C@H]1C(=O)[C@@]2(C)[C@H]([C@H](OC(=O)c3ccccc3)[C@]3(O)C[C@H](OC(=O)[C@H](O)[C@@H](NC(=O)c4ccccc4)c4ccccc4)C(C)=C1C3(C)C)[C@]1(OC(C)=O)CO[C@@H]1C[C@@H]2O [traditional paclitaxel, (2α,4α,5β,7β,10β,13α)-4,10-Bis(acetyloxy)-13-{[(2R,3S)-3-(benzoylamino)-2-hydroxy-3-phenylpropanoyl]oxy}-1,7-dihydroxy-9-oxo-5,20-epoxytax-11-en-2-yl benzoate]
Metastatic breast cancer; first and second line or beyond
  ORR: 19%
Metastatic breast cancer
  TTP: 16.9 weeks

## COC1CC2CCC(C)C(O)(O2)C(=O)C(=O)N2CCCCC2C(=O)OC(C(C)CC2CCC(OCCO)C(OC)C2)CC(=O)C(C)/C=C(/C)C(O)C(OC)C(=O)C(C)CC(C)/C=C/C=C/C=C\1C (centres unmarked) [Compound A36, Everolimus]
[2]; [16]
  inhibition of S6K phosphorylation: about 38%
[2]; 5 mg weekly dosing regimen
  inhibition of S6K phosphorylation: more than 50%
[2]; 20 mg weekly dosing regimen
  inhibition of mTOR-mediated S6K phosphorylation: almost completely
[3]; compared to placebo
  percentage of PD-1-positive CD4+ and CD8+ lymphocytes: reducing the percentage of PD-1-positive CD4+ and CD8+ lymphocytes
[3]; elderly subjects
  response to an influenza vaccine: enhancing the response to an influenza vaccine

## CN[C@@H](C)C(=O)N[C@H](C(=O)N1CCC[C@H]1c1nc(C(=O)c2ccc(F)cc2)cs1)C1CCCCC1 [Compound A21]
T lymphocytes [4]
  IFNgamma: induced IFNgamma
  production of IL-10: suppressed production of IL-10
  proliferation of T lymphocytes: stimulated proliferation of T lymphocytes
MC38 [5]
  complete responses (CRs): neither single agent treatment yielded any CRs
1800 mg in combination with paclitaxel
  tolerability: poorly tolerated
With paclitaxel, clinical data
  rate of pathological complete response of TNBC: increased the rate of pathological complete response
T lymphocytes [6]
  IFNgamma: induced
  production of IL-10: suppressed
  proliferation of T lymphocytes: stimulated

## Cc1[nH]c2ccccc2c1CCNCc1ccc(/C=C/C(=O)NO)cc1 [Compound A19, Panobinostat]
PD-L1 gene; melanoma cell lines, cultured melanoma biopsy material, tumor-bearing mice
  expression of the PD-L1 gene: enhanced expression of the PD-L1 gene
PD-L1 gene; mice
  responses to treatment with a PD-1 inhibitor: modestly improved responses
[7]
  inhibition of HDAC activity: highly effective at inhibiting the HDAC activity of the majority of class I, IIa, IIIb, and IV isoforms at low nanomolar concentrations
MC38 [8]; panobinostat 12 mg/kg every other day, anti-PD1 10 mg/kg IV once weekly
  animals achieving CRs: two of ten
MC38 [8]; recovery after dosing of panobinostat was completed
  body weight: Some reduction in body weight

## CO[C@H]1C[C@@H]2CC[C@@H](C)[C@@](O)(O2)C(=O)C(=O)N2CCCC[C@H]2C(=O)O[C@H]([C@H](C)C[C@@H]2CC[C@@H](OCCO)[C@H](OC)C2)CC(=O)[C@H](C)/C=C(\C)[C@@H](O)[C@@H](OC)C(=O)[C@H](C)C[C@H](C)/C=C/C=C/C=C/1C [everolimus]
[9]; [16]
  inhibition of S6K phosphorylation: about 38%
[9]; 5 mg weekly dosing regimen
  inhibition of S6K phosphorylation: more than 50%
[9]; 20 mg weekly dosing regimen
  inhibition of mTOR-mediated S6K phosphorylation: almost completely
[10]
  immune effect: immunostimulatory

## O=C(/C=C/c1ccc2ccc(C(F)(F)F)cc2n1)c1ccncc1 [PFK-158, (E)-1-(pyridin-4-yl)-3-(7-(trifluoromethyl)quinolin-2-yl)-prop-2-en-1-one]
Xenografted tumors
  antitumor activity: exhibit antitumor activity
Xenografted tumors; xenografted tumors
  18FDG uptake: reduce

## CNC(=O)c1cc(Oc2ccc3nc(N[C@@H]4CCCC[C@H]4O)sc3c2)ccn1 [Compound A15]
glioblastoma; 200 mg/kg daily, genetic mouse model of glioblastoma
  established tumors and survival: induce regression of established tumors and increase survival
glioblastoma; 200 mg/kg daily, proneural glioblastoma-derived xenografts
  xenograft growth: slow the growth
glioblastoma; animal models of glioma
  M2-type macrophages: reduction and re-programming of M2-type macrophages
BAF3-PDGFRβ
  EC50: ≥ 2000 nM
MC38 [11]
  once-a-week (Q1W) versus daily dose, TAMs depletion and anti-tumor activity: performs at least as well as the daily dose
[12]
  transaminases: transaminases elevation
[13]
  EC50: > 10000 nM
[14]; monocytes co-cultured with neuroblastoma cell lines
  suppressive function of tumor-educated monocytes on CD8+ and CD4+ T cells: inhibit the suppressive function
[14]; neuroblastoma (Mao et al. 2016)
  potential of myeloid cells to stimulate human T cell proliferation: recovered the potential of myeloid cells to stimulate human T cell proliferation
[15]
  transaminases: transaminases elevation
MNFS-60; read-out: EC50 anti-proliferative effect, MNFS-60, M-CSF dependent proliferation
  EC50: < 71 nM
MNFS-60; read-out: EC50 anti-proliferative effect, MNFS-60; M-CSF dependent proliferation
  EC50: 71 nM

## Nc1ncn([C@H]2C[C@H](O)[C@@H](CO)O2)c(=O)n1 [decitabine, 5-aza-2′-deoxycytidine]
AML; in vivo
  complete remission rate (CR+CRp): 17.8%
AML; intent-to-treat population
  median Overall Survival (OS): 7.7 months
